Here are results for 19 compounds from patent US20230257372A1 (CHONG KUN DANG PHARMACEUTICAL CORP., priority 2020, published 2023).

One assay concerns the target T1, human recombinant HDAC1 (Homo sapiens, UniProt Q13547).
T1 construct: purchased Enzo Life Science, Inc. BML-SE456
In words: HDAC1 enzyme activity inhibition (HDAC Fluorimetric Drug Discovery Kit). Type of assay: biochemical. To be noted: read-out: HDAC1. The method in brief:
(§1)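 Enzyme at 0.3 µg per well was reacted with 10 μM fluorogenic substrate in presence of 5-fold diluted compound, 30° C for 60 min.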

The target in the next assay is T2, human recombinant HDAC6 (Homo sapiens, UniProt Q9UBN7).
T2 construct: purchased Calbiochem Inc. 382180
T2 sequence (Q9UBN7 1-1215): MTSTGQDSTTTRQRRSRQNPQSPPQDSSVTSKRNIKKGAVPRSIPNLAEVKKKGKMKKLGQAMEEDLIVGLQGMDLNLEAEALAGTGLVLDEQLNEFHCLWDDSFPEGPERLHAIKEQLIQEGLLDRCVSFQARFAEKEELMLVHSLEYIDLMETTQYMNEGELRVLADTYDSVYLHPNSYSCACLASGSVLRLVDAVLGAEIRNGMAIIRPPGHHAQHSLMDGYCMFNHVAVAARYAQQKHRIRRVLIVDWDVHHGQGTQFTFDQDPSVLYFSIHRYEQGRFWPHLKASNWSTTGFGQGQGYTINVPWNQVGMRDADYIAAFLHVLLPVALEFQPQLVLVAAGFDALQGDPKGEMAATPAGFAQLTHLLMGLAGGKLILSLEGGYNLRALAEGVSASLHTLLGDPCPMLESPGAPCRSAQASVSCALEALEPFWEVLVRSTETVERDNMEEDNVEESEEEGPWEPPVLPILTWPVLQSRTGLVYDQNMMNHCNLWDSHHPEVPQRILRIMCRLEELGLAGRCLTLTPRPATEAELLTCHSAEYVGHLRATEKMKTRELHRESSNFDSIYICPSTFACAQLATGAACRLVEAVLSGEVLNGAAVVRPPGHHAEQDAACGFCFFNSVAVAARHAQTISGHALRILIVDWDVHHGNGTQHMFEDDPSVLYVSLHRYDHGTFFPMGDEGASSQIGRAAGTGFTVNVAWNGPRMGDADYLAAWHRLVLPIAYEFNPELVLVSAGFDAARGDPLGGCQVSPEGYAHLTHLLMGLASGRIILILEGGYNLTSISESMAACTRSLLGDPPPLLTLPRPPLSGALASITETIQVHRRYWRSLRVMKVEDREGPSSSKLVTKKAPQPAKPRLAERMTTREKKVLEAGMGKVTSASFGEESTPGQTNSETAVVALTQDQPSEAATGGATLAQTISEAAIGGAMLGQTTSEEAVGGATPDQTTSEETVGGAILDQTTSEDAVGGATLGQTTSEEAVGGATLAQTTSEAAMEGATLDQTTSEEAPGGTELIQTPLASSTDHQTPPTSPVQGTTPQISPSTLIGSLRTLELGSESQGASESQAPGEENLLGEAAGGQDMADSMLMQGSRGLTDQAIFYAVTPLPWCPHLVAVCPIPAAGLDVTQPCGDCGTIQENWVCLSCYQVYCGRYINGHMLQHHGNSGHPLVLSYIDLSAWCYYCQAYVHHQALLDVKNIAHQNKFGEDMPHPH
In words: HDAC6 enzyme activity inhibition (HDAC Fluorimetric Drug Discovery Kit). Type of assay: biochemical. The method in brief:
as §1

[1] abbreviates: human recombinant HDAC1, IC50 calculated with GraphPad Prism.
[2] abbreviates: human recombinant HDAC6, IC50 calculated with GraphPad Prism.
[3] abbreviates: human recombinant HDAC1, Fluor de Lys substrate, 30° C. 60 minutes.
Setting [4] is: human recombinant HDAC6, same protocol as HDAC1.

Like-named read-outs stand apart in the source and are kept apart here.

T1 sequence (Q13547 whole entry): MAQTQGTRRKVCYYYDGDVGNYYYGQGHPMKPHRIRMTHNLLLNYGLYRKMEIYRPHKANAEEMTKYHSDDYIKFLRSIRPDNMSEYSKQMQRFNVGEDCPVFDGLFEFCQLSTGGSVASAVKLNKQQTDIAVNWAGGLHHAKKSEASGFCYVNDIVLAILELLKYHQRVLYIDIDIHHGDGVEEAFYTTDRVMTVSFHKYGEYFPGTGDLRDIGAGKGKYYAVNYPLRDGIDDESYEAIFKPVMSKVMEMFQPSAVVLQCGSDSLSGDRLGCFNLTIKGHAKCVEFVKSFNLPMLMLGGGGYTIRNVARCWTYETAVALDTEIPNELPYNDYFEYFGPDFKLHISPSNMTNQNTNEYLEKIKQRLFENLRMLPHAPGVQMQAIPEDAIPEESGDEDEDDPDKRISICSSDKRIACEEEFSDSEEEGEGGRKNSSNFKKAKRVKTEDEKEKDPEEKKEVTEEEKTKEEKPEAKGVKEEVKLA

`FC(F)c1nnc(-c2ccc(Cn3cc([C@@H]4CCCN4C4CC5(COC5)C4)nn3)nc2)o1` [Compound 4027, (S)-2-(6-((4-(1-(2-oxaspiro[3.3]heptan-6-yl)pyrrolidin-2-yl)-1H-1,2,3-triazol-1-yl)methyl)pyridin-3-yl)-5-(difluoromethyl)-1,3,4-oxadiazole]: the IC50 was more than 50000 nM on human recombinant HDAC1 (setting [1]) and 5000 nM on human recombinant HDAC6 (setting [2]). Further, on human recombinant HDAC6 (HDAC1 IC50 / HDAC6 IC50), the “HDAC6 selectivity (fold)” value amounted to 10 fold.

Regarding `CN1CCN(Cc2cccc(-c3cn(Cc4ccc(-c5nnc(C(F)F)o5)cc4)nn3)c2)CC1` [Compound 4414], the IC50 at human recombinant HDAC1 (setting [1]) was more than 50000 nM; at human recombinant HDAC6 (setting [2]), 79.7 nM. Besides, the “HDAC6 selectivity (fold)” value at human recombinant HDAC6 (HDAC1 IC50 / HDAC6 IC50) is recorded as 627 fold.

Regarding `CC(C)N1CCN(Cc2cccc(-c3cn(Cc4ccc(-c5nnc(C(F)F)o5)cc4F)nn3)c2)CC1` [Compound 4408], the figures for the IC50 on human recombinant HDAC1 (setting [1]) and at human recombinant HDAC6 (setting [2]) were more than 50000 nM and 51.5 nM, respectively. On human recombinant HDAC6 (HDAC1 IC50 / HDAC6 IC50), the “HDAC6 selectivity (fold)” value is 970 fold.

Regarding `Fc1cc(-c2nnc(C(F)F)o2)ccc1Cn1cc(-c2cc3c(s2)CNCC3)nn1` [Compound 4499, 2-(difluoromethyl)-5-(3-fluoro-4-((4-(4,5,6,7-tetrahydrothieno[2,3-c]pyridin-2-yl)-1H-1,2,3-triazol-1-yl)methyl)phenyl)-1,3,4-oxadiazole], the IC50 was more than 50000 nM at human recombinant HDAC1 (setting [3]) and 54.2 nM on human recombinant HDAC6 (setting [4]). The “HDAC6 selectivity (fold)” value at human recombinant HDAC6 (HDAC6 over HDAC1) came out at 922 fold.

For `CN1Cc2cccc(-c3cn(Cc4ccc(-c5nnc(C(F)F)o5)cc4)nn3)c2C1` [Compound 4529, 2-(difluoromethyl)-5-(4-((4-(2-methylisoindolin-4-yl)-1H-1,2,3-triazol-1-yl)methyl)phenyl)-1,3,4-oxadiazole], the IC50 on human recombinant HDAC1 (setting [3]) is more than 50000 nM; on human recombinant HDAC6 (setting [4]) it was 160 nM. Besides, at human recombinant HDAC6 (HDAC6 over HDAC1), the “HDAC6 selectivity (fold)” value amounted to 313 fold.

Regarding `FC(F)c1nnc(-c2ccc(Cn3cc(C4CCN(C5CC6(COC6)C5)CC4)nn3)nc2)o1` [Compound 3810, 2-(6-((4-(1-(2-oxaspiro[3.3]heptan-6-yl)piperidin-4-yl)-1H-1,2,3-triazol-1-yl)methyl)pyridin-3-yl)-5-(difluoromethyl)-1,3,4-oxadiazole], the figures for the IC50 at human recombinant HDAC1 (setting [1]) and on human recombinant HDAC6 (setting [2]) were more than 50000 nM and 280 nM, respectively. Further, the “HDAC6 selectivity (fold)” value at human recombinant HDAC6 (HDAC1 IC50 / HDAC6 IC50) stood at 178 fold.

In the case of `CC(C)(C)OC(=O)N1CCC(c2cccc(-c3cn(Cc4ncc(-c5nnc(C(F)F)o5)cc4F)nn3)c2)CC1` [Compound 18868, tert-butyl 4-(3-(1-((5-(5-(difluoromethyl)-1,3,4-oxadiazol-2-yl)-3-fluoropyridin-2-yl)methyl)-1H-1,2,3-triazol-4-yl)phenyl)piperidin-1-carboxylate], the IC50 on human recombinant HDAC1 (setting [3]) was more than 50000 nM; on human recombinant HDAC6 (setting [4]), 551 nM. The “HDAC6 selectivity (fold)” value at human recombinant HDAC6 (HDAC6 over HDAC1) was found to be 90 fold.

As for `Fc1cc(-c2nnc(C(F)F)o2)ccc1Cn1cc(-c2ccc3c(c2)CN(C2COC2)C3)nn1` [Compound 4519, 2-(difluoromethyl)-5-(3-fluoro-4-((4-(2-(oxetan-3-yl)isoindolin-5-yl)-1H-1,2,3-triazol-1-yl)methyl)phenyl)-1,3,4-oxadiazole], the IC50 on human recombinant HDAC1 (setting [3]) is more than 50000 nM; on human recombinant HDAC6 (setting [4]), 50.3 nM. Further, on human recombinant HDAC6 (HDAC6 over HDAC1), the “HDAC6 selectivity (fold)” value is 994 fold.

Regarding `CCN1[C@H](C)CN(c2cccc(-c3cn(Cc4ccc(-c5nnc(C(F)F)o5)cc4F)nn3)c2)C[C@@H]1C` [Compound 4444], the figures for the IC50 at human recombinant HDAC1 (setting [1]) and on human recombinant HDAC6 (setting [2]) were more than 50000 nM and 26.7 nM, respectively. The “HDAC6 selectivity (fold)” value at human recombinant HDAC6 (HDAC1 IC50 / HDAC6 IC50) amounted to 1872 fold.

`CC(C)N1CCC(Nc2ccc(F)c(-c3cn(Cc4ccc(-c5nnc(C(F)F)o5)cc4F)nn3)c2)CC1` [Compound 4436, N-(3-(1-(4-(5-(difluoromethyl)-1,3,4-oxadiazol-2-yl)-2-fluorobenzyl)-1H-1,2,3-triazol-4-yl)-4-fluorophenyl)-1-isopropylpiperidin-4-amine]: the IC50 was more than 50000 nM on human recombinant HDAC1 (setting [1]) and 36.5 nM on human recombinant HDAC6 (setting [2]). The “HDAC6 selectivity (fold)” value at human recombinant HDAC6 (HDAC1 IC50 / HDAC6 IC50) is on record as 1369 fold.

`Fc1cc(-c2nnc(C(F)F)o2)ccc1Cn1cc(-c2cccc3c2CN(C2COC2)C3)nn1` [Compound 4538, 2-(difluoromethyl)-5-(3-fluoro-4-((4-(2-(oxetan-3-yl)isoindolin-4-yl)-1H-1,2,3-triazol-1-yl)methyl)phenyl)-1,3,4-oxadiazole]: the IC50 was more than 50000 nM on human recombinant HDAC1 (setting [3]) and 92.7 nM on human recombinant HDAC6 (setting [4]). Moreover, the “HDAC6 selectivity (fold)” value at human recombinant HDAC6 (HDAC6 over HDAC1) is 539 fold.

As to `Cc1cncc(-c2cn(Cc3ccc(-c4nnc(C(F)F)o4)cn3)nn2)c1` [Compound 3884, 2-(difluoromethyl)-5-(6-((4-(5-methylpyridin-3-yl)-1H-1,2,3-triazol-1-yl)methyl)pyridin-3-yl)-1,3,4-oxadiazole], the IC50 at human recombinant HDAC1 (setting [1]) was more than 50000 nM; at human recombinant HDAC6 (setting [2]) it was 37.6 nM. The “HDAC6 selectivity (fold)” value at human recombinant HDAC6 (HDAC1 IC50 / HDAC6 IC50) worked out at 1329 fold.

For the compound `Fc1cc(-c2nnc(C(F)F)o2)cnc1Cn1cc(-c2ccc(CN3CCC3)cc2Cl)nn1` [Compound 19099, 2-(6-((4-(4-(azetidin-1-ylmethyl)-2-chlorophenyl)-1H-1,2,3-triazol-1-yl)methyl)-5-fluoropyridin-3-yl)-5-(difluoromethyl)-1,3,4-oxadiazole], the values for the IC50 at human recombinant HDAC1 (setting [3]) and on human recombinant HDAC6 (setting [4]) were more than 50000 nM and 47.1 nM, respectively. The “HDAC6 selectivity (fold)” value on human recombinant HDAC6 (HDAC6 over HDAC1) came to 1061 fold.

Regarding `FC(F)c1nnc(-c2ccc(Cn3cc(-c4cccc(N5C[C@@H]6C[C@H]5CN6)c4)nn3)cc2)o1` [Compound 4317, 2-(4-((4-(3-((1S,4S)-2,5-diazabicyclo[2.2.1]heptan-2-yl)phenyl)-1H-1,2,3-triazol-1-yl)methyl)phenyl)-5-(difluoromethyl)-1,3,4-oxadiazole], the results for the IC50 on human recombinant HDAC1 (setting [1]) and on human recombinant HDAC6 (setting [2]) were more than 50000 nM and 83.6 nM, respectively. On human recombinant HDAC6 (HDAC1 IC50 / HDAC6 IC50), the “HDAC6 selectivity (fold)” value is given as 598 fold.

As for `Fc1cc(-c2nnc(C(F)F)o2)ccc1Cn1cc(-c2cccs2)nn1` [Compound 18258, 2-(difluoromethyl)-5-(3-fluoro-4-((4-(thiophen-2-yl)-1H-1,2,3-triazol-1-yl)methyl)phenyl)-1,3,4-oxadiazole], the values for the IC50 on human recombinant HDAC1 (setting [3]) and at human recombinant HDAC6 (setting [4]) were more than 50000 nM and 85.9 nM, respectively. The “HDAC6 selectivity (fold)” value at human recombinant HDAC6 (HDAC6 over HDAC1) was 582 fold.

In the case of `CCN1Cc2ccc(-c3cn(Cc4ccc(-c5nnc(C(F)F)o5)cc4F)nn3)cc2C1` [Compound 4516, 2-(difluoromethyl)-5-(4-((4-(2-ethylisoindolin-5-yl)-1H-1,2,3-triazol-1-yl)methyl)-3-fluorophenyl)-1,3,4-oxadiazole], the results for the IC50 on human recombinant HDAC1 (setting [3]) and on human recombinant HDAC6 (setting [4]) were more than 50000 nM and 73.5 nM, respectively. Moreover, on human recombinant HDAC6 (HDAC6 over HDAC1), the “HDAC6 selectivity (fold)” value was found to be 680 fold.

For `CC1CCN(Cc2ccc(-c3cn(Cc4ccc(-c5nnc(C(F)F)o5)cc4F)nn3)cc2)CC1` [Compound 4611, 2-(difluoromethyl)-5-(3-fluoro-4-((4-(4-((4-methylpiperidin-1-yl)methyl)phenyl)-1H-1,2,3-triazol-1-yl)methyl)phenyl)-1,3,4-oxadiazole], the IC50 is more than 50000 nM on human recombinant HDAC1 (setting [3]) and 17.9 nM on human recombinant HDAC6 (setting [4]). In addition, the “HDAC6 selectivity (fold)” value at human recombinant HDAC6 (HDAC6 over HDAC1) was 2793 fold.

As to `CCN1CCCC(c2cn(Cc3ccc(-c4nnc(C(F)F)o4)cn3)nn2)C1` (stereo not drawn) [Compound 4002, 2-(difluoromethyl)-5-(6-((4-(1-ethylpiperidin-3-yl)-1H-1,2,3-triazol-1-yl)methyl)pyridin-3-yl)-1,3,4-oxadiazole], the IC50 at human recombinant HDAC1 (setting [1]) is more than 50000 nM; on human recombinant HDAC6 (setting [2]) it was 520 nM. For the same compound, the “HDAC6 selectivity (fold)” value on human recombinant HDAC6 (HDAC1 IC50 / HDAC6 IC50) was determined as 96 fold.

As to `Fc1cc(-c2nnc(C(F)F)o2)cnc1Cn1cc(-c2cccs2)nn1` [Compound 17984, 2-(difluoromethyl)-5-(5-fluoro-6-((4-(thiophen-2-yl)-1H-1,2,3-triazol-1-yl)methyl)pyridin-3-yl)-1,3,4-oxadiazole], the IC50 is more than 50000 nM at human recombinant HDAC1 (setting [3]) and 56.5 nM on human recombinant HDAC6 (setting [4]). In addition, the “HDAC6 selectivity (fold)” value on human recombinant HDAC6 (HDAC6 over HDAC1) is listed as 884 fold.
